Test results reported in patent publication US20240116867A1, “ALKYL […] AMMONIUM T[…] THEIR […] USES” (CAAMTECH, INC., priority 2019, published 2024).
Where two headings read alike, the source gives them in different places.

Columns and labels:
[1] = biological target: T1, 5-HT2B (Homo sapiens, UniProt P41595); experiment: Radioligand binding, 5-HT2B ([125] (±)DOI), membrane homogenates of HEK-293 cells; parameters: host or cells: HEK-293; conditions: Table 5
Experimental: (§1) Cellular assays were performed by Eurofins CEREP SA, Celle-Lévescault, France. All receptors were separately expressed in HEK-293 cells. Cell membrane homogenates (30 μg protein) are incubated for 60 min (5-HT1A, 5-HT2A, 5-HT2B) or 120 min (5-HT3) at 22° C. with radiolabeled ligand in the absence or presence of the test compound in a buffer containing 50 mM Tris-HCl (pH 7.4), 5 mM MgCl2, 10 μM pargyline and 0.1% ascorbic acid. For 5-HT3, the buffer contained 50 mM Tris-HCl (pH 7.4), 5 mM MgCl2, and 1 mM EDTA. Binding was reported as the Ki for the inhibition of binding of well-characterized orthosteric ligands. The ligands used for each receptor were: • 5-HT1A: [^3H] 8-OH-DPAT • 5-HT2A: [^125] […]
(§2) Nonspecific binding was determined in the presence of 1 μM unlabeled ligand listed above. […] The filters were dried then counted for radioactivity in a scintillation counter (Topcount, Packard) using a scintillation cocktail (Microscint 0, Packard). The results are expressed as a percent inhibition of the control radioligand specific binding.
(§3) The IC50 values and Hill coefficients (nH) were determined by non-linear regression analysis of the competition curves generated with mean replicate values using Hill equation curve fitting Y=D+[(A−D)/(1+(C/C50)^nH)] where Y=specific binding, A=left asymptote of the curve, D=right asymptote of the curve, C=compound concentration, C50=IC50, and nH=slope factor. […]

[2] = biological target: T2, 5-HT3 (Homo sapiens, UniProt P46098); experiment: Radioligand binding, 5-HT3 ([3H] BRL 43694), membrane homogenates of HEK-293 cells; conditions: Table 5
T2 construct: host or cells: HEK-293
T2 sequence (P46098 24-478): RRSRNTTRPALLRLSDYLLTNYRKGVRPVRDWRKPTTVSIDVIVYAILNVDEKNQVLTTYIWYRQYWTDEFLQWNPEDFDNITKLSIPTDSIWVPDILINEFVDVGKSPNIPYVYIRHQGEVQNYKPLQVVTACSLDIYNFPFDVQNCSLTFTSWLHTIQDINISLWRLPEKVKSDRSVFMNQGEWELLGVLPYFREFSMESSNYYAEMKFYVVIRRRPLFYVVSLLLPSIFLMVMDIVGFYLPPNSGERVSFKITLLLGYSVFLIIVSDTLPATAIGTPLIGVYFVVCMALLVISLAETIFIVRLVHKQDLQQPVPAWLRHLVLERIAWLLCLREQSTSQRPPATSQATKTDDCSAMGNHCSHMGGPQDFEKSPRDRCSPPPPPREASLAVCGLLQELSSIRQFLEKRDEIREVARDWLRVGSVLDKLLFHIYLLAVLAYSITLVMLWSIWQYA
Experimental: as §1, §2, §3

[3] = biological target: T3, 5-HT2A (Homo sapiens, UniProt P28223); experiment: Radioligand binding, 5-HT2A ([125] (±)DOI), membrane homogenates of HEK-293 cells; conditions: Table 5
T3 construct: host or cells: HEK-293
Experimental: as §1, §2, §3

[4] = biological target: T4, 5-HT1A (Homo sapiens, UniProt P08908); experiment: Radioligand binding, 5-HT1A ([3H] 8-OH-DPAT), membrane homogenates of HEK-293 cells; conditions: Table 5
T4 construct: host or cells: HEK-293
T4 sequence (P08908 1-422): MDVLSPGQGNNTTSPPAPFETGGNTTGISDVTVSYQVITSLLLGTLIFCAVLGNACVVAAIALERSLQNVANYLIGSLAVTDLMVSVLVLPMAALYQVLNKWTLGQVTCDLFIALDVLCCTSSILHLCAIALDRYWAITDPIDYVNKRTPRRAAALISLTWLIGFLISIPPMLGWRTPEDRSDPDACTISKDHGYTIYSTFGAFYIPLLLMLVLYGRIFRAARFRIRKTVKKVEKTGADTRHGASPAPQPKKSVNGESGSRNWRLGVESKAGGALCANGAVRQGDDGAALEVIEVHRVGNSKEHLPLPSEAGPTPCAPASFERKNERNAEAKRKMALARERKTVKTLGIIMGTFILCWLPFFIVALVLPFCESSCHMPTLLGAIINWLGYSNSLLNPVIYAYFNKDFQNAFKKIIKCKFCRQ
Experimental: as §1, §2, §3

[5] = biological target: T4, 5-HT1A; conditions: cited from earlier work
[6] = biological target: T3, 5-HT2A; conditions: cited from earlier work
[7] = biological target: T2, 5-HT3; conditions: read-out: Inhibition constants (Ki) 5-HT3; comparison values marked ‡ (Roth et al.); cited from earlier work
[8] = biological target: T1, 5-HT2B; conditions: comparison values (Roth et al.); cited from earlier work
[9] = comparison values (Roth et al.)

T3 sequence (P28223 whole entry): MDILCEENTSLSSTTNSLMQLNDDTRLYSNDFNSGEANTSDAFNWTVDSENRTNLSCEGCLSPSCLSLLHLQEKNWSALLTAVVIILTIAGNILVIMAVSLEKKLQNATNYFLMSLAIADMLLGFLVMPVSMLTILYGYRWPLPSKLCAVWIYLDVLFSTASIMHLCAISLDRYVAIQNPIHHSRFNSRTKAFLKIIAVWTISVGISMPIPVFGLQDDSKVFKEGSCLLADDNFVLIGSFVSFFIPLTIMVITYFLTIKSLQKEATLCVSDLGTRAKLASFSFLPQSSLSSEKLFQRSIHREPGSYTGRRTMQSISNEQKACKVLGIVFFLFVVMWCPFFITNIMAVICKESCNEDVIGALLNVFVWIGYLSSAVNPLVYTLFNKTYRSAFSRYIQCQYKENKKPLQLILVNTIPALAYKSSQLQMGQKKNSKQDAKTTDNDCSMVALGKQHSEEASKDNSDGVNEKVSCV
T1 sequence (P41595 whole entry): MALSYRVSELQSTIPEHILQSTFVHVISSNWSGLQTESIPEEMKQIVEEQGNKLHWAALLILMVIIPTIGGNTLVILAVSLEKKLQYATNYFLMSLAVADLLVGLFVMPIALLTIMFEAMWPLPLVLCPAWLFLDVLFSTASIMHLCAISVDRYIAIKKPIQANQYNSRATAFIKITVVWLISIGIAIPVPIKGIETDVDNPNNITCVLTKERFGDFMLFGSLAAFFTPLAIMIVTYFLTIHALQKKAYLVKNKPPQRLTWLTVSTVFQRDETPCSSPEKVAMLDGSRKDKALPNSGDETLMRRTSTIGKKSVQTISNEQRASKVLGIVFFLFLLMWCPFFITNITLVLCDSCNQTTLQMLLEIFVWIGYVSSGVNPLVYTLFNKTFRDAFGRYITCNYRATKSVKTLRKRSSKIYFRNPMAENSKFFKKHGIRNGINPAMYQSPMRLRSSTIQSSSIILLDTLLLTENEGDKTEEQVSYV

SMILES	activity at 5-HT2B (in words) [1]	activity at 5-HT3 (in words) [2]	activity at 5-HT2A (in words) [3]	activity at 5-HT1A (in words) [4]	activity at 5-HT1A (in words) [5, 9]	activity at 5-HT2A (in words) [6, 9]	Ki [7]	activity at 5-HT2B (in words) [8]	Ki ([5]; read-out: Inhibition constants (Ki) 5-HT1A, comparison values marked ‡ (Roth et al.))	Ki ([6]; read-out: Inhibition constants (Ki) 5-HT2A, comparison values marked ‡ (Roth et al.))
CC(=O)Oc1cccc2[nH]cc(CC[N+](C)(C)C)c12 [Example 4-AcO-TMTI, 4-Acetoxy-N,N,N-trimethyltryptammonium Iodide]	shows no activity	shows no activity	shows no activity	shows no activity						
C[N+](C)(C)CCc1c[nH]c2cccc(O)c12 [Example 4-HO-TMTI, 4-Hydroxy-N,N,N-trimethyltryptammonium Iodide]	shows activity	no activity observed	shows activity	shows activity						
CN(C)CCc1c[nH]c2cccc(O)c12 [Psilocin]					shows activity	shows activity	> 10 µM	significantly more potent than 4-HO-TMTI		
CN(C)CCc1c[nH]c2cccc(OP(=O)(O)O)c12 [Psilocybin]							> 10 µM		> 10 µM	> 10 µM
